From patent publication US11919856B2, “Compounds” (UCL BUSINESS LTD, priority 2018, dated 2024)

How the values were obtained:
antithrombin = antithrombin (Homo sapiens, UniProt P01008); assay: Serpin inhibitory activity, antithrombin; assay type: biochemical; details: incubation with 50 μM
From the text: (§1) In order to investigate suitability of Compound 1 for progression into in vivo studies and the potential for taking forward as a clinical candidate for testing in human, Compound 1 was profiled against a panel of in vitro assays for off-targets considered predictive of potential safety liabilities. […] The measured potency of these marginal activities were at least 10-fold below the cellular activity of Compound 1 at blocking Z α1-antitrypsin polymerisation (pEC50 6.3). Loss of inhibitory activity represents a means by which possible off-target engagement with other serpins can be evaluated. However in contrast to α1-antitrypsin upon incubation with 50 μM Compound 1 the inhibitory activity of the homologues antithrombin, neuroserpin and antichymotrypsin was not affected.

[1] = Panel of in vitro assays for off-targets predictive of safety liabilities
From the text: as §1

ChromLogD = assay type: physicochemical
[2] = Total and free drug in blood and liver of Z α1-antitrypsin transgenic mice; assay type: in vivo, mouse; details: for systemic free drug levels relative to in vitro secretion potency: duration of the dosing period
Method: To explore the PK-PD relationship of Compound 1, Z α1-antitrypsin transgenic animals were dosed with 100, 30 or 10 mg/kg Compound 1 three times a day and on day 6 blood and liver were harvested at 3 hr (˜Cmax) and 8 hr (Cmin) after the dose for the measurement of total and free drug in both tissues. Blood was also harvested for the measurement of monomeric Z α1-antitrypsin in plasma. Total concentrations of Compound 1 were determined by specific LC-MS/MS assay and the free unbound drug in both tissues was determined using equilibrium dialysis and used to derive unbound concentrations.

α1-antitrypsin [3] = assay: Equilibrium unfolding with guanidine hydrochloride (bis-ANS fluorescence); assay type: biochemical; details: guanidinium hydrochloride, 50 μM Compound 1; 1.2 M in its absence
Method: Bis-ANS is a dye that reports the appearance of the unfolding intermediate of α1-antitrypsin (Dafforn et al. J Biol Chem. 1999; 274:9548-55.). In a microplate, 10 μl aliquots of M and Z α1-antitrypsin at 0.5 mg/ml with 100 μM bis-ANS and 100 μM Compound 1 (or an equivalent volume of DMSO) were rapidly mixed with various concentrations of guanidine hydrochloride giving a final concentration of 0-6 M denaturant in PBS. Fluorescence intensity measurements of bis-ANS (λex=385 nm, λem=490 nm) were recorded once a stable signal was achieved, and the values scaled to lie between 0 and 1.0.
(§2) Polymerisation of α1-antitrypsin occurs from a transient intermediate state known as M*, that is readily populated by the Z variant. One of the hallmarks of M* is its recognition by environment-sensitive fluorescent reporter dyes. Thermal shift assays that make use of the dye SYPRO Orange report the stability of the protein native state against heat-induced unfolding. […] Native state stability can also be probed by equilibrium unfolding using chemical denaturants, where a peak in bis-ANS fluorescence corresponds with a maximally populated unfolding intermediate.

Z α1-antitrypsin [4] = target: T1, Z α1-antitrypsin (Homo sapiens, UniProt P01009, E366K/V237A); assay: Polymerisation of Z α1-antitrypsin in iPSC-derived hepatocytes (ZZ genotype); assay type: cell-based; set-up: a random insertion of the human Z α1-antitrypsin gene; from tissue; host or cells: liver and plasma of Z α1-antitrypsin transgenic mice (human Z transgene); details: read-out: pIC50, polymerisation of Z α1-antitrypsin (converted)
Method: In order to confirm that the potency and efficacy of Compound 1 in CHO-TET-ON-Z-A1AT was a reasonable estimate of what could be expected in hepatocytes with endogenous levels of expression, the effect of Compound 1 on the secretion and polymerisation of Z α1-antitrypsin was measured in iPSC-derived hepatocytes with the ZZ α1-antitrypsin genotype (Yusa et al. Nature. 2011; 478:391-4).

[5] = In vitro clearance in cryopreserved hepatocytes, human; assay type: in vitro ADME
α1-antitrypsin [6] = assay: End-point constant-temperature heat-induced polymerisation assay (non-denaturing PAGE); assay type: biochemical, human; details: constant-temperature experiment, versus absence
Method: Resistance to heat-induced polymerisation was also determined using an end-point constant-temperature assay. Plasma purified M and Z α1-antitrypsin were diluted to 0.2 mg/ml in PBS with 5% v/v glycerol, incubated with 10 μM Compound 1 (or with DMSO alone) for 2 hours and then heated in 20 μl aliquots for a further 4 hours in a thermal cycler with a 48-65° C. gradient applied across the plate. Samples were analysed on a 3-12% w/v acrylamide Bis-Tris Native-PAGE gel (Life Technologies).
as §2

Z α1-antitrypsin [7] = target: T1, Z α1-antitrypsin; assay: Compound association experiments (intrinsic tryptophan fluorescence), Z α1-antitrypsin; assay type: binding; set-up: a random insertion of the human Z α1-antitrypsin gene; from tissue; host or cells: liver and plasma of Z α1-antitrypsin transgenic mice (human Z transgene)
Method: The intrinsic tryptophan fluorescence of α1-antitrypsin is dominated by Trp194 in the breach region (Tew et al. J Mol Biol. 2001 Nov. 9; 313(5):1161-9) and can be used to monitor the progress of compound binding. Plasma M and Z α1-antitrypsin were diluted to 0.2 mg/ml in 100 μM PBS, and Compound 1 (or an equivalent volume of DMSO) added to a concentration of 10 μM. Fluorescence (λex=280 nm, λem=330 nm) was monitored for at least 2 hours, and the half-time of change was calculated.
Kinetic data in stopped flow experiments were fitted to exponential decay curves with offset and linear slope, to account for a constant drift in the background, resulting in observed pseudo-first-order rate constants k(obs): y=A0·e^−k(obs)t+slope·t+offset where t=time and Ao=amplitude at t=0. The second-order on-rate was then obtained as the slope when plotting k(obs) values versus compound concentration. Off-rates were calculated from the on-rates and the KD values determined from the binding assays. Cell Biology

T1 sequence (P01009 25-418 V237A/E366K): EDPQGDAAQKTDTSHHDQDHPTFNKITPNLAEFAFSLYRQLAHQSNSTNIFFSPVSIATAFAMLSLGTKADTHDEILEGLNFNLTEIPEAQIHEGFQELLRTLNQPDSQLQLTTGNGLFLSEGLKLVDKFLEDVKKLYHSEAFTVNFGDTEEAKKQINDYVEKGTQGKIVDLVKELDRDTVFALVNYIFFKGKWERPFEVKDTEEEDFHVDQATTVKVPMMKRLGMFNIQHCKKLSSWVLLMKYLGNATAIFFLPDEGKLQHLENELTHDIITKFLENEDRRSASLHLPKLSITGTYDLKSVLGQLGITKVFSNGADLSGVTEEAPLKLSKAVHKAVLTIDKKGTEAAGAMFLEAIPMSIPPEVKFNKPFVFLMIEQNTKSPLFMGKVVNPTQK
Chain of antithrombin (P01008 33-464): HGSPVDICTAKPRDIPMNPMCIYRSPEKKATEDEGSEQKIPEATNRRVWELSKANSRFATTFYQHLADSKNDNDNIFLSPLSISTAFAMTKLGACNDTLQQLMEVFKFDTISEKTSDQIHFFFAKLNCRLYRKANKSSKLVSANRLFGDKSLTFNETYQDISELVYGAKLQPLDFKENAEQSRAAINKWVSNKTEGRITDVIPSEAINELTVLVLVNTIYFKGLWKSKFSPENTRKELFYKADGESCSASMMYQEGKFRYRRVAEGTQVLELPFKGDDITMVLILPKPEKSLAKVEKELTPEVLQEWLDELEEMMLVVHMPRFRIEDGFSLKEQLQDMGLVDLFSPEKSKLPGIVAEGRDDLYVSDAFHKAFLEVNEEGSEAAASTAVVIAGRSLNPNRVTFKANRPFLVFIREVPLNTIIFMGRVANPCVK

SMILES: CCC[C@@H](NC(=O)c1cccc2c1CC(=O)N2)[C@@H](O)c1cccc(F)c1C [Compound 1, N-[(1S,2R)-1-(3-fluoro-2-methylphenyl)-1-hydroxypentan-2-yl]-2-oxo-2,3-dihydro-1H-indole-4-carboxamide]
- inhibitory activity of antithrombin (antithrombin): not affected
- activity against off-target panel [1]: inactive against the majority of these targets
- marginal activities in off-target panel [1]: low level of activity close to the lower limit of sensitivity in 16 assays
- potency of marginal off-target activities below cellular activity ([1]; relative to cellular activity at blocking Z α1-antitrypsin polymerisation): at least 10 fold
- ChromLogD (pH7.4) (ChromLogD): 3.8
- systemic free drug levels relative to in vitro secretion potency ([2]; 10 mg/kg): EC10-EC20
- free drug levels in blood ([2]; 30 mg/kg and 10 mg/kg three times a day, large part of the dosing period): significantly below the cellular EC50 concentrations
- systemic free drug levels relative to in vitro secretion potency ([2]; 30 mg/kg): EC20-EC30
- concentration at 8 h ([2]; Z α1-antitrypsin transgenic, mouse, blood, oral, 100 mg/kg three times a day, day 6, majority of the dosing period, read-out: Cmin levels of the free drug concentration in blood): ≥ 300 nM
- free and total drug concentrations in the liver ([2]; transgenic mice, day 6): equivalent to those in blood
- denaturant concentration at peak bis-ANS fluorescence (maximally populated unfolding intermediate) (α1-antitrypsin [3]): 1.8 M
- IC50 (Z α1-antitrypsin [4]): 398 nM
- in vitro clearance in cryopreserved hepatocytes [5]: 0.3 ± 0.05 mL/min/g
- temperature at which oligomers are generated (α1-antitrypsin [6]): higher temperatures
- koff (Z α1-antitrypsin [7]; calculated from on-rate and KD, read-out: first-order dissociation rate): 6.1e-05 s⁻¹
- kon (Z α1-antitrypsin [7]; read-out: second-order association rate): 41000 M⁻¹ s⁻¹
